Results taken from ChEMBL document CHEMBL4000185, “Pyrimidine-Based Inhibitors of Dynamin I GTPase Activity: Competitive Inhibition at the Pleckstrin Homology Domain” (J Med Chem, 2017).

Assays:
[1] = test system: HT-29; experiment: Growth inhibition of human HT-29 cells assessed as cell death at 25 uM after 72 hrs by MTT assay relative to control; assay type: functional; parameters: scale not given: the % may be the effect or the level left
[2] = test system: DU-145; experiment: Growth inhibition of human DU145 cells assessed as cell death at 25 uM after 72 hrs by MTT assay relative to control; assay type: functional; parameters: scale not given: the % may be the effect or the level left
[3] = test system: NCI-H460; experiment: Growth inhibition of human NCI-H460 cells assessed as cell death at 25 uM after 72 hrs by MTT assay relative to control; assay type: functional; parameters: scale not given: the % may be the effect or the level left
[4] = test system: A-431; experiment: Growth inhibition of human A431 cells assessed as cell death at 25 uM after 72 hrs by MTT assay relative to control; assay type: functional; parameters: scale not given: the % may be the effect or the level left
[5] = Growth inhibition of human SJ-G2 cells assessed as cell death at 25 uM after 72 hrs by MTT assay relative to control; assay type: functional; parameters: scale not given: the % may be the effect or the level left
[6] = test system: BE(2)-C; experiment: Growth inhibition of human BE(2)-C cells assessed as cell death at 25 uM after 72 hrs by MTT assay relative to control; assay type: functional; parameters: scale not given: the % may be the effect or the level left
[7] = test system: MIA PaCa-2; experiment: Growth inhibition of human MIAPaCa2 cells assessed as cell death at 25 uM after 72 hrs by MTT assay relative to control; assay type: functional; parameters: scale not given: the % may be the effect or the level left
[8] = Inhibition of phosphatidyl serine liposome-stimulated sheep brain dynamin 1 GTPase activity assessed as reduction orthophosphate release using GTP as substrate after 30 mins by malachite green reagent based colorimetric assay; parameters: species or system Ovis aries; conditions: read-out: IC50
[9] = test system: SW480; experiment: Growth inhibition of human SW480 cells assessed as cell death at 25 uM after 72 hrs by MTT assay relative to control; assay type: functional; parameters: scale not given: the % may be the effect or the level left
[10] = Growth inhibition of human SMA cells assessed as cell death at 25 uM after 72 hrs by MTT assay relative to control; assay type: functional; parameters: scale not given: the % may be the effect or the level left
[11] = Growth inhibition of human U87 cells assessed as cell death at 25 uM after 72 hrs by MTT assay relative to control; assay type: functional, U-87MG ATCC; parameters: scale not given: the % may be the effect or the level left
[12] = test system: MCF7; experiment: Growth inhibition of human MCF7 cells assessed as cell death at 25 uM after 72 hrs by MTT assay relative to control; assay type: functional; parameters: scale not given: the % may be the effect or the level left
[13] = test system: A2780; experiment: Growth inhibition of human A2780 cells assessed as cell death at 25 uM after 72 hrs by MTT assay relative to control; assay type: functional; parameters: scale not given: the % may be the effect or the level left
[14] = test system: DU-145; experiment: Growth inhibition of human DU145 cells after 72 hrs by MTT assay; assay type: functional; conditions: DU-145, 72 h
[15] = test system: MCF7; experiment: Growth inhibition of human MCF7 cells after 72 hrs by MTT assay; assay type: functional; conditions: MCF7, 72 h
[16] = test system: HT-29; experiment: Growth inhibition of human HT-29 cells after 72 hrs by MTT assay; assay type: functional; conditions: HT-29, 72 h
[17] = Growth inhibition of human U87 cells after 72 hrs by MTT assay; assay type: functional, U-87MG ATCC; conditions: U-87 MG
[18] = molecular target: 5-hydroxytryptamine receptor 6 (Homo sapiens) (UniProt P50406); experiment: Displacement of [3H]LSD from human recombinant 5-HT6 receptor expressed in CHO cells at 10 uM after 120 mins by scintillation counting relative to control; assay type: cell-based; conditions: values are per cent of control
[19] = molecular target: Substance-K receptor (Homo sapiens) (UniProt P21452); experiment: Displacement of [125I]NKA from human recombinant tachykinin NK2 receptor expressed in CHO cells at 10 uM after 60 mins by scintillation counting relative to control; assay type: cell-based; conditions: values are per cent of control
[20] = molecular target: D(2) dopamine receptor (Homo sapiens) (UniProt P14416); experiment: Displacement of [3H]methyl-spiperone from human recombinant D2S receptor in HEK293 cells at 10 uM after 60 mins by scintillation counting relative to control; assay type: cell-based; conditions: values are per cent of control
[21] = molecular target: Muscarinic acetylcholine receptor M3 (Homo sapiens) (UniProt P20309); experiment: Displacement of [3H]4-DAMP from human recombinant Muscarinic acetylcholine receptor M3 expressed in CHO cells at 10 uM after 60 mins by scintillation counting relative to control; assay type: cell-based; conditions: values are per cent of control
[22] = Growth inhibition of human SMA cells after 72 hrs by MTT assay; assay type: functional
[23] = test system: MIA PaCa-2; experiment: Growth inhibition of human MIAPaCa2 cells after 72 hrs by MTT assay; assay type: functional; conditions: MIA PaCa-2, 72 h
[24] = molecular target: Melanocortin receptor 4 (Homo sapiens) (UniProt P32245); experiment: Inhibition of human recombinant melanocortin 4 receptor expressed in CHO cells at 10 uM relative to control; assay type: cell-based; conditions: values are per cent of control
[25] = test system: A2780; experiment: Growth inhibition of human A2780 cells after 72 hrs by MTT assay; assay type: functional; conditions: A2780, 72 h
[26] = molecular target: Muscarinic acetylcholine receptor M1 (Homo sapiens) (UniProt P11229); experiment: Displacement of [3H]pirenzepine from human recombinant Muscarinic acetylcholine receptor M1 expressed in CHO cells at 10 uM after 60 mins by scintillation counting relative to control; assay type: cell-based; conditions: values are per cent of control
[27] = test system: BE(2)-C; experiment: Growth inhibition of human BE(2)-C cells after 72 hrs by MTT assay; assay type: functional
[28] = test system: SW480; experiment: Growth inhibition of human SW480 cells after 72 hrs by MTT assay; assay type: functional; conditions: SW480, 72 h
[29] = Growth inhibition of human SJ-G2 cells after 72 hrs by MTT assay; assay type: functional; conditions: SJ-G2, 72 h
[30] = molecular target: Histamine H1 receptor (Homo sapiens) (UniProt P35367); experiment: Displacement of [3H]pyrilamine from human recombinant histamine H1 receptor in HEK293 cells at 10 uM after 60 mins by scintillation counting relative to control; assay type: cell-based; conditions: values are per cent of control
[31] = molecular target: 5-hydroxytryptamine receptor 5A (Homo sapiens) (UniProt P47898); experiment: Displacement of [3H]LSD from human recombinant 5-HT5a receptor in HEK293 cells at 10 uM after 120 mins by scintillation counting relative to control; assay type: cell-based; conditions: values are per cent of control
[32] = molecular target: Histamine H2 receptor (Homo sapiens) (UniProt P25021); experiment: Displacement of [125I]APT from human recombinant histamine H2 receptor expressed in CHO cells at 10 uM after 120 mins by scintillation counting relative to control; assay type: cell-based; conditions: values are per cent of control
[33] = molecular target: Kappa-type opioid receptor (Rattus norvegicus) (UniProt P34975); experiment: Displacement of [3H]U 69593 from rat recombinant kappa opioid receptor expressed in CHO cells at 10 uM after 60 mins by scintillation counting relative to control; assay type: cell-based; conditions: values are per cent of control
[34] = test system: A-431; experiment: Growth inhibition of human A431 cells after 72 hrs by MTT assay; assay type: functional; conditions: A-431, 72 h
[35] = molecular target: Sodium-dependent noradrenaline transporter (Homo sapiens) (UniProt P23975); experiment: Displacement of [3H]nisoxetine from human recombinant norepinephrine transporter expressed in CHO cells at 10 uM after 120 mins by scintillation counting relative to control; assay type: cell-based; conditions: values are per cent of control
[36] = molecular target: 5-hydroxytryptamine receptor 7 (Homo sapiens) (UniProt P34969); experiment: Displacement of [3H]LSD from human recombinant 5-HT7 receptor expressed in CHO cells at 10 uM after 120 mins by scintillation counting relative to control; assay type: cell-based; conditions: values are per cent of control
[37] = molecular target: 5-hydroxytryptamine receptor 2A (Homo sapiens) (UniProt P28223); experiment: Displacement of [3H]ketanserin from human recombinant 5-HT2A receptor in HEK293 cells at 10 uM after 60 mins by scintillation counting relative to control; assay type: cell-based; conditions: values are per cent of control
[38] = molecular target: T1, 5-hydroxytryptamine receptor 2B (Homo sapiens, UniProt P41595); experiment: Displacement of [125I](+/-)DOI from human recombinant 5-HT2B receptor expressed in CHO cells at 10 uM after 60 mins by scintillation counting relative to control; assay type: cell-based; conditions: values are per cent of control
[39] = molecular target: Sodium-dependent dopamine transporter (Homo sapiens) (UniProt Q01959); experiment: Displacement of [3H]BTCP from human recombinant dopamine transporter expressed in CHO cells at 10 uM after 120 mins by scintillation counting relative to control; assay type: cell-based; conditions: values are per cent of control
[40] = test system: NCI-H460; experiment: Growth inhibition of human NCI-H460 cells after 72 hrs by MTT assay; assay type: functional; conditions: NCI-H460, 72 h
[41] = molecular target: T1, 5-hydroxytryptamine receptor 2B; experiment: Displacement of [125I](+/-)DOI from human recombinant 5-HT2B receptor expressed in CHO cells after 60 mins by scintillation counting; assay type: cell-based

T1 sequence (P41595 whole entry): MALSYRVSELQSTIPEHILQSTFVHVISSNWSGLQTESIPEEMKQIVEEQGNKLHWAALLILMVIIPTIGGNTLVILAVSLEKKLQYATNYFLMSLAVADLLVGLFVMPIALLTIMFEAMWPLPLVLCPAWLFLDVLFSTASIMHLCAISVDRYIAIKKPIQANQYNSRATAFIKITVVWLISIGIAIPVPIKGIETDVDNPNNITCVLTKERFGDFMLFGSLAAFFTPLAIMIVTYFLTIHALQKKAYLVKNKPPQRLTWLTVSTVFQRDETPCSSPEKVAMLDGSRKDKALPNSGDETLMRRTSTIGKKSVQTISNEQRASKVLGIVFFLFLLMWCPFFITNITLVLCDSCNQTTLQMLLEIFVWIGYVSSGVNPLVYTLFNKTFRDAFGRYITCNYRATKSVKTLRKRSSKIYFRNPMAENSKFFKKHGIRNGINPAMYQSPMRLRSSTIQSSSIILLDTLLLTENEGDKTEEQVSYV
Chain of 5-hydroxytryptamine receptor 5A (Homo sapiens) (P47898 whole entry): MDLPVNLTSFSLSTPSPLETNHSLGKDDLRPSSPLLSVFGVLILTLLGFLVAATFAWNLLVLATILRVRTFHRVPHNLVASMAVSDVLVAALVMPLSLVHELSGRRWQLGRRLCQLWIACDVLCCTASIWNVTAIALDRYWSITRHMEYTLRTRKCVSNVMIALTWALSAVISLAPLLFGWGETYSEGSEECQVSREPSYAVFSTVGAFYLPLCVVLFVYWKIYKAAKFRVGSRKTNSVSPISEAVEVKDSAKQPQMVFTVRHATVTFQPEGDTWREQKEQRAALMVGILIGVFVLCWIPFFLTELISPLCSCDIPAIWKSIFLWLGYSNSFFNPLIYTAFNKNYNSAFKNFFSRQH
Chain of 5-hydroxytryptamine receptor 2A (Homo sapiens) (P28223 whole entry): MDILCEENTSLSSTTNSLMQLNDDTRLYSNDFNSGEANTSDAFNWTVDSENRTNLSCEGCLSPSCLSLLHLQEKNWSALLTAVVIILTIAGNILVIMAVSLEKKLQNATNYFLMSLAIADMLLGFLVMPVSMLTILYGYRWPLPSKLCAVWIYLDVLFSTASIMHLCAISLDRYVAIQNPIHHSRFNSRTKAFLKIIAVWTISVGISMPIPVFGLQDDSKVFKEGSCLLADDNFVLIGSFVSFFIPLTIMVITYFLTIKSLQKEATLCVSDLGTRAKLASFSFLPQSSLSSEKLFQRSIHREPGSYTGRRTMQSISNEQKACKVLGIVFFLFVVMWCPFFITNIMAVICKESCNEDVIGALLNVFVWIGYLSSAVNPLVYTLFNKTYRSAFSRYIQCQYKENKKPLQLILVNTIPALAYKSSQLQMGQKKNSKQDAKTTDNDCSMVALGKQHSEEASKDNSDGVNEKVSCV
Chain of D(2) dopamine receptor (Homo sapiens) (P14416 whole entry): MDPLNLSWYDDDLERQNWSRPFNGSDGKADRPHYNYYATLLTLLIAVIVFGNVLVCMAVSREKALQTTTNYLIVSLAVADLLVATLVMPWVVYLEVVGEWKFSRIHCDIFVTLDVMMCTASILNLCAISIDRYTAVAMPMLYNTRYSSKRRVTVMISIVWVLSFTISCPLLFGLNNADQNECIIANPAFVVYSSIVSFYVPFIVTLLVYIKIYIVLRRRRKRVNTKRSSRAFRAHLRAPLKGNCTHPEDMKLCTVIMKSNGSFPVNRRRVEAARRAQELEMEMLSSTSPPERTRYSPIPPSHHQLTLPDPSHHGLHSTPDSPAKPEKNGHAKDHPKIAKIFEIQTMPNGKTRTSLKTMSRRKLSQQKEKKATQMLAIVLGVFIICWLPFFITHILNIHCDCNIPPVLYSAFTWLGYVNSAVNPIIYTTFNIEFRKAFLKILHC
Chain of Sodium-dependent dopamine transporter (Homo sapiens) (Q01959 whole entry): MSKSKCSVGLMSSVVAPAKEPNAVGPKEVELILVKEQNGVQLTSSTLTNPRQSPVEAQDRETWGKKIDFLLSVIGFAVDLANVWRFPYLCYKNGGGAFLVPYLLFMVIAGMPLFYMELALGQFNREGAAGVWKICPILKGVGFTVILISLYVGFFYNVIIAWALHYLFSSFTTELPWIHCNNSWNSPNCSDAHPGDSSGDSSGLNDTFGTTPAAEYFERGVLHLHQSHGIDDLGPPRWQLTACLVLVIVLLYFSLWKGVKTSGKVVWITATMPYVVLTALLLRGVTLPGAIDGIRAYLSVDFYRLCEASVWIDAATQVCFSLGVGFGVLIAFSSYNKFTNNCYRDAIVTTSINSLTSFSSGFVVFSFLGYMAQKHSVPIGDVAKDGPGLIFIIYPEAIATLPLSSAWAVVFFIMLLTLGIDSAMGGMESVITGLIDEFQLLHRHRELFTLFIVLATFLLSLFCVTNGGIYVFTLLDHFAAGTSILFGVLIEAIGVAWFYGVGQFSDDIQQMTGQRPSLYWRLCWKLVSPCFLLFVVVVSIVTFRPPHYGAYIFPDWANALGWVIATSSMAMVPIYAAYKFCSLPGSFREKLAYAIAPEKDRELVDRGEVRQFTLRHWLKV
Chain of Kappa-type opioid receptor (Rattus norvegicus) (P34975 whole entry): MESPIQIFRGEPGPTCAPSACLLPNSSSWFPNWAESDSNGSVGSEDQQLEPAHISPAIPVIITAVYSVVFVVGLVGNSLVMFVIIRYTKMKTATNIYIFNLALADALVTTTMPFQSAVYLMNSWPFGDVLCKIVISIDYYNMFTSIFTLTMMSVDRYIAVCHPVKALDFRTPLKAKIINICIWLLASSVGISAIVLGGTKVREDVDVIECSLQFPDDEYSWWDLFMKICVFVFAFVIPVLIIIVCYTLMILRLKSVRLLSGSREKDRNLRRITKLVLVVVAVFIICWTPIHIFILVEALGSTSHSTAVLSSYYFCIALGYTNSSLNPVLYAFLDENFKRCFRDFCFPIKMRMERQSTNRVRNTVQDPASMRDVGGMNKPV
Chain of Histamine H1 receptor (Homo sapiens) (P35367 whole entry): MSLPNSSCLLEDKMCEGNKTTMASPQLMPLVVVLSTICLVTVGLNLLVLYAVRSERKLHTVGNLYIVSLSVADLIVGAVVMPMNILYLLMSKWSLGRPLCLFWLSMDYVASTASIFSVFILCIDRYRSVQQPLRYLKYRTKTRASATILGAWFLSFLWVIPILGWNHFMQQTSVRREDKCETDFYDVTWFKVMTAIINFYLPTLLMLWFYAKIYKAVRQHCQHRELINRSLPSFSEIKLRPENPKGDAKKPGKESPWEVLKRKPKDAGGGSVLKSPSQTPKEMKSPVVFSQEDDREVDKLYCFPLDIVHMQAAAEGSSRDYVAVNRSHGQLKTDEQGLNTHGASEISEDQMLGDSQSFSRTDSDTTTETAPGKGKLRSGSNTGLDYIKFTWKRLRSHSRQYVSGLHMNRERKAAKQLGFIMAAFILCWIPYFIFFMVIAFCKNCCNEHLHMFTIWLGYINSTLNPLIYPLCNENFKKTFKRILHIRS
Chain of 5-hydroxytryptamine receptor 7 (Homo sapiens) (P34969 whole entry): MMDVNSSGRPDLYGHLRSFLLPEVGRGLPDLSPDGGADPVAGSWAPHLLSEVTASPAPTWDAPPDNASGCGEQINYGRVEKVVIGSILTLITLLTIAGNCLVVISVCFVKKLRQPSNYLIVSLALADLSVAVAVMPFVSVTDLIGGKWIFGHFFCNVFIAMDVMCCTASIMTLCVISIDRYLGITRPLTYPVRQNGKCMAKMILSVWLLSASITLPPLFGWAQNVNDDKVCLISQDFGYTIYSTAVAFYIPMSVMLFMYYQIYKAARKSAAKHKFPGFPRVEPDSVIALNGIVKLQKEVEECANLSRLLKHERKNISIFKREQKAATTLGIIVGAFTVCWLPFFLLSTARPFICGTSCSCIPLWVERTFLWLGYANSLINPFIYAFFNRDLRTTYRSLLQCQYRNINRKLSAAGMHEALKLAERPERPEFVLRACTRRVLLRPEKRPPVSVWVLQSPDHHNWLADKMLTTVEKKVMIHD
Chain of Substance-K receptor (Homo sapiens) (P21452 whole entry): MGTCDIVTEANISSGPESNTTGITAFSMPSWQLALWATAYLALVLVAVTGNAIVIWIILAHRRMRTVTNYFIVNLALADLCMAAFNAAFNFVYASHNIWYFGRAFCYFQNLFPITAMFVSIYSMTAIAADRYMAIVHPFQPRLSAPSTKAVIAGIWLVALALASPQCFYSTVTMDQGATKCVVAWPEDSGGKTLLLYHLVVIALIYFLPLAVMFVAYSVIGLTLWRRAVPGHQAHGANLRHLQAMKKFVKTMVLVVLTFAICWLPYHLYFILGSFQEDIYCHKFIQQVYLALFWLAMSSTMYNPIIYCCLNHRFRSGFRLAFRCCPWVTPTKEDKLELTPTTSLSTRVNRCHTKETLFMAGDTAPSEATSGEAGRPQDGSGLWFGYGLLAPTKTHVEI
Chain of Histamine H2 receptor (Homo sapiens) (P25021 whole entry): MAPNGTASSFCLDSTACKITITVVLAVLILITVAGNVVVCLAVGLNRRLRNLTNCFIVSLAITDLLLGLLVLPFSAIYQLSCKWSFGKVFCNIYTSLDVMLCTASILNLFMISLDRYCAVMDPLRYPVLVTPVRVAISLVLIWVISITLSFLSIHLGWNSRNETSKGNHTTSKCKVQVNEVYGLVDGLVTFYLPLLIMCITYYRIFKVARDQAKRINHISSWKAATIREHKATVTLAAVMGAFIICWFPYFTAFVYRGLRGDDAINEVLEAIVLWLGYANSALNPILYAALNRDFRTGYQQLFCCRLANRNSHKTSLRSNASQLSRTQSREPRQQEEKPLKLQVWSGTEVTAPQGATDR
Chain of 5-hydroxytryptamine receptor 6 (Homo sapiens) (P50406 whole entry): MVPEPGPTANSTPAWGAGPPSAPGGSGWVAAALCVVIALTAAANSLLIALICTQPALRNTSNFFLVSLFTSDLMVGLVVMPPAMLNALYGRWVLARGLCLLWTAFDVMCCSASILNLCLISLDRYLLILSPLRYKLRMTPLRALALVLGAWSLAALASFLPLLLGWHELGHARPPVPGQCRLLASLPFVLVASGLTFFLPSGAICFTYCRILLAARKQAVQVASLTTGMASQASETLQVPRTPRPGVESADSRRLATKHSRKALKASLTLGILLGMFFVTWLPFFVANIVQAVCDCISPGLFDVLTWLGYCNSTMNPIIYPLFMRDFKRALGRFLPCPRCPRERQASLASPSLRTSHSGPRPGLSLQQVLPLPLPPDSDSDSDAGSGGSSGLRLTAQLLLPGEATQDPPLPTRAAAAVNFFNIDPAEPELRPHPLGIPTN

Compound: CCCCCCCCCCCCNc1nc(C)cc(Cl)n1
- Activity [1]: 56%
- Activity [2]: 42%
- Activity [3]: 21%
- Activity [4]: 25%
- Activity [5]: 25%
- Activity [6]: 46%
- Activity [7]: 42%
- IC50 [8]: > 300 µM
- Activity [9]: 37%
- Activity [10]: 65%
- Activity [11]: 21%
- Activity [12]: 53%
- Activity [13]: 63%

Compound: CCCCCCCCCCCCNc1nc(C)cc(NCCN(C)C)n1
- GI50 [14]: 1.9 µM
- GI50 [15]: 1.5 µM
- GI50 [16]: 1.4 µM
- GI50 [17]: 1.5 µM
- residual binding, % of control [18]: 91%
- residual binding, % of control [19]: 93%
- residual binding, % of control [20]: 99%
- residual binding, % of control [21]: 104%
- GI50 [22]: 1.3 µM
- GI50 [23]: 1.5 µM
- residual binding, % of control [24]: 96%
- GI50 [25]: 1.8 µM
- residual binding, % of control [26]: 91%
- IC50 [8]: 1.4 µM
- GI50 [27]: 1.5 µM
- GI50 [28]: 0.8 µM
- GI50 [29]: 1.5 µM
- residual binding, % of control [30]: 102%
- residual binding, % of control [31]: 99%
- residual binding, % of control [32]: 106%
- residual binding, % of control [33]: 97%
- GI50 [34]: 1.7 µM
- residual binding, % of control [35]: 96%
- residual binding, % of control [36]: 98%
- residual binding, % of control [37]: 93%
- residual binding, % of control [38]: 94%
- residual binding, % of control [39]: 105%
- GI50 [40]: 2.5 µM

Compound: COc1cc(CC(C)N)c(OC)cc1I (racemic)
- Ki [41]: 0.0016 µM
